Measurements from PubChem BioAssay (NCI).
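Cells were grown in 96-well plates and exposed to each compound for 48 hours at five concentrations; endpoints were interpolated linearly between bracketing concentrations, or set to the highest concentration if not reached. GI50 = concentration required for 50% inhibition of growth. TGI is the concentration that stops growth completely.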

How the values were obtained:
Assay in all cases: inhibition of tumour cell growth, NCI panel, 48 h
NCI-H226 lung = system: NCI-H226 lung
NCI-H23 lung = system: NCI-H23 lung
NCI-H460 lung = system: NCI-H460 lung
NCI-H522 lung = system: NCI-H522 lung
NCI/ADR-RES ovarian = system: NCI/ADR-RES ovarian
OVCAR-3 ovarian = system: OVCAR-3 ovarian
OVCAR-4 ovarian = system: OVCAR-4 ovarian
OVCAR-5 ovarian = system: OVCAR-5 ovarian
OVCAR-8 ovarian = system: OVCAR-8 ovarian
PC-3 prostate = system: PC-3 prostate
RPMI-8226 leukemia = system: RPMI-8226 leukemia
RXF 393 renal = system: RXF 393 renal
SF-268 CNS = system: SF-268 CNS
SF-295 CNS = system: SF-295 CNS
SF-539 CNS = system: SF-539 CNS
SK-MEL-2 melanoma = system: SK-MEL-2 melanoma
SK-MEL-28 melanoma = system: SK-MEL-28 melanoma
SK-MEL-5 melanoma = system: SK-MEL-5 melanoma
SK-OV-3 ovarian = system: SK-OV-3 ovarian
SN12C renal = system: SN12C renal
SNB-19 CNS = system: SNB-19 CNS
SR leukemia = system: SR leukemia
SW-620 colon = system: SW-620 colon
T-47D breast = system: T-47D breast
TK-10 renal = system: TK-10 renal
U251 CNS = system: U251 CNS
UACC-257 melanoma = system: UACC-257 melanoma
UACC-62 melanoma = system: UACC-62 melanoma
UO-31 renal = system: UO-31 renal

In the case of `COc1cccc(/C=C/C(=O)c2ccc(OC)c(S(N)(=O)=O)c2)c1`, the GI50 (NCI-H226 lung) is reported as 2.72 µM, the TGI (NCI-H226 lung) is reported as 11.1 µM and the GI50 (NCI-H23 lung) is reported as 4.66 µM. The TGI (NCI-H23 lung) was 16.9 µM, the GI50 (NCI-H460 lung) was 3.45 µM and the TGI (NCI-H460 lung) was 13.8 µM. For the same compound, the GI50 (NCI-H522 lung) was 2.48 µM, the TGI (NCI-H522 lung) was 8.39 µM and the GI50 (NCI/ADR-RES ovarian) was 2.83 µM. For the same compound, the TGI (NCI/ADR-RES ovarian) was 9.24 µM, the GI50 (OVCAR-3 ovarian) was 2.9 µM and the TGI (OVCAR-3 ovarian) was 10.8 µM. The GI50 (OVCAR-4 ovarian) was 4.87 µM, the TGI (OVCAR-4 ovarian) was 20.1 µM and the GI50 (OVCAR-5 ovarian) was 2.61 µM. It also gave a TGI (OVCAR-5 ovarian) of 10.8 µM, a GI50 (OVCAR-8 ovarian) of 2.96 µM and a TGI (OVCAR-8 ovarian) of 12 µM. For the same compound, the GI50 (PC-3 prostate) was 5.25 µM, the TGI (PC-3 prostate) was 18.4 µM and the GI50 (RPMI-8226 leukemia) was 2.54 µM. For the same compound, the TGI (RPMI-8226 leukemia) was 7.24 µM, the GI50 (RXF 393 renal) was 3.39 µM and the TGI (RXF 393 renal) was 15.1 µM. The GI50 (SF-268 CNS) was 4.85 µM, the TGI (SF-268 CNS) was 18.9 µM and the GI50 (SF-295 CNS) was 2.9 µM. The TGI (SF-295 CNS) was 12.6 µM, the GI50 (SF-539 CNS) was 1.96 µM and the TGI (SF-539 CNS) was 4.56 µM. The GI50 (SK-MEL-2 melanoma) was 14 µM, the TGI (SK-MEL-2 melanoma) was 27.3 µM and the GI50 (SK-MEL-28 melanoma) was 9.04 µM. The TGI (SK-MEL-28 melanoma) was 21.1 µM, the GI50 (SK-MEL-5 melanoma) was 5.23 µM and the TGI (SK-MEL-5 melanoma) was 18 µM. It also gave a GI50 (SK-OV-3 ovarian) of 10.1 µM, a TGI (SK-OV-3 ovarian) of 21.9 µM and a GI50 (SN12C renal) of 2.74 µM. The TGI (SN12C renal) was 10.9 µM, the GI50 (SNB-19 CNS) was 4.82 µM and the TGI (SNB-19 CNS) was 17.2 µM. For the same compound, the GI50 (SR leukemia) was 1.26 µM, the TGI (SR leukemia) was 4.09 µM and the GI50 (SW-620 colon) was 3.16 µM. For the same compound, the TGI (SW-620 colon) was 12 µM, the GI50 (T-47D breast) was 2.97 µM and the TGI (T-47D breast) was 14.2 µM. The GI50 (TK-10 renal) was 2.81 µM, the TGI (TK-10 renal) was 13.1 µM and the GI50 (U251 CNS) was 2.5 µM. For the same compound, the TGI (U251 CNS) was 9.83 µM, the GI50 (UACC-257 melanoma) was 10.2 µM and the TGI (UACC-257 melanoma) was 22.5 µM. The GI50 (UACC-62 melanoma) was 4.16 µM, the TGI (UACC-62 melanoma) was 16.9 µM and the GI50 (UO-31 renal) was 2.03 µM. It also gave a TGI (UO-31 renal) of 9.93 µM.
